Measured values as given in patent US20260256792A1, “TREATMENT OF CHRONIC SPONTANEOUS URTICARIA BY ADMINISTERING (R)-2-[3-[4-AMINO-3-(2-FLUORO-4-PHENOXY-PHENYL)PYRAZOLO[3,4-D]PYRIMIDIN-1-YL]PIPERIDINE-1-CARBONYL]-4-METHYL-4-[4-(OXETAN-3-YL)PIPERAZIN-1-YL]PENT-2-ENENITRILE” (priority 2023, published 2026).

System: angioedema in CSU patients
Assay: Phase 2 CSU study: angioedema activity score over 7 days (AAS7)
Type: in vivo, human
Settings: for Non-responder n (%), AAS7 = 0 / OR (95% CI) for rilzabrutinib vs. placebo, AAS7 = 0 / RRD (%) for rilzabrutinib vs. placebo (95% CI), AAS7 = 0 / Responder n (%), AAS7 = 0: outlier removed
From the text: The study comprises a 12 week, randomized, double-blind, placebo-controlled, multi-center, dose-ranging efficacy and safety phase, followed by a 40 week open label extension (OLE) phase (see FIG. 1). The study consists of three phases and an optional OLE phase. […] The weekly angioedema activity score (AAS7) was proposed as a tertiary endpoint. […] Patients were to complete the AAS using the e-diary. The e-diary was to be used once daily on the same time of each day recording of participant's answers to the angioedema activity score over 7 days (AAS7) questionnaire.

[1] = 400 mg BID, Week 12, omalizumab-naïve, angioedema at baseline
[2] = 400 mg QPM, Week 1, ITT, angioedema at baseline
[3] = 400 mg QPM, Week 1, omalizumab-naïve
[4] = 400 mg QPM, Week 1, omalizumab-naïve, angioedema at baseline
[5] = 400 mg QPM, Week 2, ITT, angioedema at baseline
[6] = 400 mg QPM, Week 2, omalizumab-naïve
[7] = 400 mg QPM, Week 2, omalizumab-naïve, angioedema at baseline
[8] = 400 mg QPM, Week 3, ITT, angioedema at baseline
[9] = 400 mg QPM, Week 3, omalizumab-naïve
[10] = 400 mg QPM, Week 3, omalizumab-naïve, angioedema at baseline
[11] = 400 mg QPM, Week 4, ITT, angioedema at baseline
[12] = 400 mg QPM, Week 4, omalizumab-naïve
[13] = 400 mg QPM, Week 4, omalizumab-naïve, angioedema at baseline

CC(C)(C=C(C#N)C(=O)N1CCC[C@@H](n2nc(-c3ccc(Oc4ccccc4)cc3F)c3c(N)ncnc32)C1)N1CCN(C2COC2)CC1 [rilzabrutinib, (R)-2-[3-[4-amino-3-(2-fluoro-4-phenoxy-phenyl)pyrazolo[3,4-d]pyrimidin-1-yl]piperidine-1-carbonyl]-4-methyl-4-[4-(oxetan-3-yl)piperazin-1-yl]pent-2-enenitrile]
AAS7 Change from baseline LS Mean (SE) [1]: −41.53 (4.39)
AAS7 Post-baseline Mean (SD) [1]: 11.73 (18.07)
Participants with AAS7 = 0, Responder n (%) [1]: 11 (42.3) n (%)
patients achieving angioedema score (AAS7) of 0 (400 mg BID, within one week of initiating treatment, omalizumab-naïve): 42.3%
AAS7 % Change difference for rilzabrutinib vs. placebo LS Mean (95% CI) [2]: −12.18 (−42.38, 18.02) %
AAS7 % Change from baseline LS Mean (SE) [2]: −32.14 (9.37) %
AAS7 Change difference for rilzabrutinib vs. placebo LS Mean (95% CI) [2]: −5.18 (−18.04, 7.67)
AAS7 Change from baseline LS Mean (SE) [2]: −19.68 (3.99)
AAS7 Post-baseline Mean (SD) [2]: 34.57 (21.50)
Non-responder n (%), AAS7 = 0 [3]: 24 (64.9) n (%)
OR (95% CI) for rilzabrutinib vs. placebo, AAS7 = 0 [3]: 1.428
RRD (%) for rilzabrutinib vs. placebo (95% CI), AAS7 = 0 [3]: 8.1 %
Responder n (%), AAS7 = 0 [3]: 13 (35.1) n (%)
AAS7 % Change difference for rilzabrutinib vs. placebo LS Mean (95% CI) [4]: −14.70 (−47.27, 17.88) %
AAS7 % Change from baseline LS Mean (SE) [4]: −31.74 (9.84) %
AAS7 = 0, OR (95% CI) for rilzabrutinib vs. placebo [4]: 3.545
AAS7 = 0, RRD (%) for rilzabrutinib vs. placebo (95% CI) [4]: 9.1 %
AAS7 Change difference for rilzabrutinib vs. placebo LS Mean (95% CI) [4]: −5.57 (−19.34, 8.21)
AAS7 Change from baseline LS Mean (SE) [4]: −19.33 (4.16)
AAS7 Post-baseline Mean (SD) [4]: 34.85 (21.86)
AAS7 % Change difference for rilzabrutinib vs. placebo LS Mean (95% CI) [5]: 4.26 (−27.23, 35.76) %
AAS7 Change from baseline LS Mean (SE) [5]: −21.54 (4.19)
AAS7 Post-baseline Mean (SD) [5]: 32.95 (23.02)
Non-responder n (%), AAS7 = 0 [6]: 24 (64.9) n (%)
OR (95% CI) for rilzabrutinib vs. placebo, AAS7 = 0 [6]: 0.875
RRD (%) for rilzabrutinib vs. placebo (95% CI), AAS7 = 0 [6]: −3.3 %
Responder n (%), AAS7 = 0 [6]: 13 (35.1) n (%)
AAS7 % Change difference for rilzabrutinib vs. placebo LS Mean (95% CI) [7]: 0.88 (−32.86, 34.63) %
AAS7 % Change from baseline LS Mean (SE) [7]: −36.33 (12.38) %
AAS7 = 0, OR (95% CI) for rilzabrutinib vs. placebo [7]: 0.514
AAS7 = 0, RRD (%) for rilzabrutinib vs. placebo (95% CI) [7]: −9.2 %
AAS7 Post-baseline Mean (SD) [7]: 33.25 (23.40)
AAS7 % Change difference for rilzabrutinib vs. placebo LS Mean (95% CI) [8]: 15.17 (−24.59, 54.94) %
AAS7 % Change from baseline LS Mean (SE) [8]: −33.35 (14.94) %
AAS7 Change difference for rilzabrutinib vs. placebo LS Mean (95% CI) [8]: 2.33 (−9.09, 13.74)
AAS7 Change from baseline LS Mean (SE) [8]: −21.82 (4.29)
AAS7 Post-baseline Mean (SD) [8]: 32.48 (20.51)
Non-responder n (%), AAS7 = 0 [9]: 25 (67.6) n (%)
OR (95% CI) for rilzabrutinib vs. placebo, AAS7 = 0 [9]: 1.041
RRD (%) for rilzabrutinib vs. placebo (95% CI), AAS7 = 0 [9]: 0.9 %
Responder n (%), AAS7 = 0 [9]: 12 (32.4) n (%)
AAS7 % Change difference for rilzabrutinib vs. placebo LS Mean (95% CI) [10]: 14.44 (−28.58, 57.46) %
AAS7 % Change from baseline LS Mean (SE) [10]: −33.23 (15.73) %
AAS7 = 0, Non-responder n (%) [10]: 23 (85.2) n (%)
AAS7 = 0, OR (95% CI) for rilzabrutinib vs. placebo [10]: 0.686
AAS7 = 0, RRD (%) for rilzabrutinib vs. placebo (95% CI) [10]: −5.0 %
AAS7 Post-baseline Mean (SD) [10]: 32.60 (20.89)
Participants with AAS7 = 0, Responder n (%) [10]: 4 (14.8) n (%)
AAS7 % Change difference for rilzabrutinib vs. placebo LS Mean (95% CI) [11]: −12.88 (−48.34, 22.58) %
AAS7 % Change from baseline LS Mean (SE) [11]: −49.47 (13.21) %
AAS7 Change difference for rilzabrutinib vs. placebo LS Mean (95% CI) [11]: −2.68 (−13.70, 8.35)
AAS7 Change from baseline LS Mean (SE) [11]: −25.28 (4.12)
AAS7 Post-baseline Mean (SD) [11]: 29.42 (20.30)
Non-responder n (%), AAS7 = 0 [12]: 23 (62.2) n (%)
OR (95% CI) for rilzabrutinib vs. placebo, AAS7 = 0 [12]: 0.874
RRD (%) for rilzabrutinib vs. placebo (95% CI), AAS7 = 0 [12]: −3.0 %
Responder n (%), AAS7 = 0 [12]: 14 (37.8) n (%)
AAS7 % Change difference for rilzabrutinib vs. placebo LS Mean (95% CI) [13]: −19.26 (−57.48, 18.97) %
AAS7 % Change from baseline LS Mean (SE) [13]: −49.19 (13.84) %
